# Assay results as given in patent US20190380978A1, “SOLID ORAL DOSAGE FORMS OF 2R,6R-HYDROXYNORKETAMINE OR DERIVATIVES THEREOF” (priority 2016, published 2019).
# Tests used:
# 5-HT1A = target: T1, 5-HT1A (Homo sapiens, UniProt P08908); assay: binding to 5-HT1A receptor
# T1 sequence (P08908 1-422): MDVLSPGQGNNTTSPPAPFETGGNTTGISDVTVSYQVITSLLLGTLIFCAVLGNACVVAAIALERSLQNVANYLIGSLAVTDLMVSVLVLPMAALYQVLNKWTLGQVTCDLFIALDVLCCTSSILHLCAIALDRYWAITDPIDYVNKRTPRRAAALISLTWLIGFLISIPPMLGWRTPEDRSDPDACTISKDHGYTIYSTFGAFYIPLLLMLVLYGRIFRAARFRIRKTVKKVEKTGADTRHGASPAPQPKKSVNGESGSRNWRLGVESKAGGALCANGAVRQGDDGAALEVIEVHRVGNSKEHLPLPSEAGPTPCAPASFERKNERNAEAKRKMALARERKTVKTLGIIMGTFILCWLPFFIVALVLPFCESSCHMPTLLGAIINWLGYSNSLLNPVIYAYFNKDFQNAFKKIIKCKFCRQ
# Description: (§1) 2R,6R-hydroxynorketamine was investigated for binding to monoamine oxidases A and B, monoamine transporters, as well as a variety of 5HT receptors.
# 5-HT2A = 5-HT2A (Homo sapiens, UniProt P28223); assay: binding to 5-HT2A receptor
# 5-HT2A, sequence (P28223 whole entry): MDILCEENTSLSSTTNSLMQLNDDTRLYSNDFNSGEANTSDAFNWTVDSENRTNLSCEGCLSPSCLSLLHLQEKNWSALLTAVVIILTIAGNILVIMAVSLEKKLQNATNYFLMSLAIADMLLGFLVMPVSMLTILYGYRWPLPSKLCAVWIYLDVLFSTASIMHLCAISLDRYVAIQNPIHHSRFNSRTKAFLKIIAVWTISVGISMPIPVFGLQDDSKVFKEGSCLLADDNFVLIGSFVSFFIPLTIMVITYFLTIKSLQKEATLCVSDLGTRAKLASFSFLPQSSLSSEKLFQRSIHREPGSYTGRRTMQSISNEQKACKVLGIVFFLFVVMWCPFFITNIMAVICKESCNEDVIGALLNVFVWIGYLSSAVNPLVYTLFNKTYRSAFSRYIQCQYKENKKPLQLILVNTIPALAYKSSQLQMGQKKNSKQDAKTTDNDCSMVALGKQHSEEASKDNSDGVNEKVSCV
# Description: as §1
# dopamine transporter = dopamine transporter (Homo sapiens, UniProt Q01959); assay: binding to dopamine transporter
# dopamine transporter, sequence (Q01959 whole entry): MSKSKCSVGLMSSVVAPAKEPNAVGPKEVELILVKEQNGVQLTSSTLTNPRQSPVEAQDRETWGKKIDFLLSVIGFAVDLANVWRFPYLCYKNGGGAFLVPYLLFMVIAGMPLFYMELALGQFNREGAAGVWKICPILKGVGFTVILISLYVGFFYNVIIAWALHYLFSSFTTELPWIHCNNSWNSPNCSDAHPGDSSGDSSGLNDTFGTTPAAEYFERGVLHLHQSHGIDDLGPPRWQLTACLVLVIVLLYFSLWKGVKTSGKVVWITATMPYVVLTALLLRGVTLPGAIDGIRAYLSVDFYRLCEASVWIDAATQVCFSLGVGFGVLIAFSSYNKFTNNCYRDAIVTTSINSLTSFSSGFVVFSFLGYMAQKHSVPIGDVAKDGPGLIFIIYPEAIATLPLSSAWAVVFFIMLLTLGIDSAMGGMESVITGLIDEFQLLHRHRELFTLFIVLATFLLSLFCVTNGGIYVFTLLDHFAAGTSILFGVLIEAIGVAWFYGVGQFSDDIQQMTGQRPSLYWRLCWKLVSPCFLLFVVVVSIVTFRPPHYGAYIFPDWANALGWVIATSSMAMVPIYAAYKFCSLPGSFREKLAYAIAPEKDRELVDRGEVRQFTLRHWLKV
# Description: as §1
# MAO-A = MAO-A (Homo sapiens, UniProt P21397); assay: binding to monoamine oxidase A
# MAO-A, sequence (P21397 whole entry, species assumed): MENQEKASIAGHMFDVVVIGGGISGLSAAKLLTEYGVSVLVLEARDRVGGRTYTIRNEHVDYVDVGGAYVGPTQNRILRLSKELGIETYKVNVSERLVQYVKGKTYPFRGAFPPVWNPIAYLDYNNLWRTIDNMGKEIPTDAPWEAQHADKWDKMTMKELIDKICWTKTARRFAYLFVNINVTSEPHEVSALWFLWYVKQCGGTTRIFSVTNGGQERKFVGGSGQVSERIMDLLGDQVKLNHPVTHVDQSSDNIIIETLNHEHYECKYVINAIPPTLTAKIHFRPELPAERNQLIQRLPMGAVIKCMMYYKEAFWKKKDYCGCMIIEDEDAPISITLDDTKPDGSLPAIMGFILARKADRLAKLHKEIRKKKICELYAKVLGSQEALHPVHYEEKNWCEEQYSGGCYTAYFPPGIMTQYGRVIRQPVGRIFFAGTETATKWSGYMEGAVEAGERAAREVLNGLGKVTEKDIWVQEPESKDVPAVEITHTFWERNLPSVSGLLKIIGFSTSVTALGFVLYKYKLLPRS
# Description: as §1
# MAO-B = MAO-B (Homo sapiens, UniProt P27338); assay: binding to monoamine oxidase B
# MAO-B, sequence (P27338 whole entry, species assumed): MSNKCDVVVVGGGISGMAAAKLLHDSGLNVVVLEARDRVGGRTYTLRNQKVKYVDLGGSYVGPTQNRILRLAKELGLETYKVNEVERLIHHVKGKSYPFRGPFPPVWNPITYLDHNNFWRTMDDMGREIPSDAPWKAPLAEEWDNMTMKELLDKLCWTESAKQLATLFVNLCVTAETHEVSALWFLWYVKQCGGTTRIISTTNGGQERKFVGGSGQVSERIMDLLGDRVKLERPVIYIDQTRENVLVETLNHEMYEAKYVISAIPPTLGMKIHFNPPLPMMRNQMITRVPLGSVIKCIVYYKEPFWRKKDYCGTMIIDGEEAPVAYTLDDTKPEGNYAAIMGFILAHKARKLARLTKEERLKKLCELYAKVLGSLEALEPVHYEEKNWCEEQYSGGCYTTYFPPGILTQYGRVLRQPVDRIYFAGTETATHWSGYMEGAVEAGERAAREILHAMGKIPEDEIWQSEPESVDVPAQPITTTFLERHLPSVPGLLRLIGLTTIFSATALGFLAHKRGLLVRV
# Description: as §1
# CYP2D6 = CYP2D6 (Homo sapiens, UniProt P10635); assay: CYP inhibition assay, CYP2D6; type: in vitro ADME
# CYP2D6, sequence (P10635 whole entry): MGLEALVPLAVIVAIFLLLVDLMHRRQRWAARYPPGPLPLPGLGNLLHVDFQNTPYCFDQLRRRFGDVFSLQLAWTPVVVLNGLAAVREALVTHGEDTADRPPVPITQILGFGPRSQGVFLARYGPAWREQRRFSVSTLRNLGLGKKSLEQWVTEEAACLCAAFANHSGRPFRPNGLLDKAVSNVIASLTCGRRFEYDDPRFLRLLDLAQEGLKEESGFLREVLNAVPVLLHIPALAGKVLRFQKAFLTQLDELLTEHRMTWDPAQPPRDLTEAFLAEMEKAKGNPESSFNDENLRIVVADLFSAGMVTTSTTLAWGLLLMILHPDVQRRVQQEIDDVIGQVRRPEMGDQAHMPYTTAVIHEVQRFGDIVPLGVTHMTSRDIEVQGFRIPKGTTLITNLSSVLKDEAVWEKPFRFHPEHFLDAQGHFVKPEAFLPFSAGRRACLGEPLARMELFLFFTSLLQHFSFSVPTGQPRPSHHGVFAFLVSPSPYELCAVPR
# Description: (§2) Cytochrome P450s (CYPs) are a family of enzymes that play a primary role in the metabolism of a wide variety of drugs. 2R,6R-hydroxynorketamine was investigated for its potential to inhibit the action of 7 key CYP enzymes using an inhibition assay measuring reduction in the formation of metabolites compared to control.
# CYP2C9 = CYP2C9 (Homo sapiens, UniProt P11712); assay: CYP inhibition assay, CYP2C9; type: in vitro ADME
# CYP2C9, sequence (P11712 whole entry): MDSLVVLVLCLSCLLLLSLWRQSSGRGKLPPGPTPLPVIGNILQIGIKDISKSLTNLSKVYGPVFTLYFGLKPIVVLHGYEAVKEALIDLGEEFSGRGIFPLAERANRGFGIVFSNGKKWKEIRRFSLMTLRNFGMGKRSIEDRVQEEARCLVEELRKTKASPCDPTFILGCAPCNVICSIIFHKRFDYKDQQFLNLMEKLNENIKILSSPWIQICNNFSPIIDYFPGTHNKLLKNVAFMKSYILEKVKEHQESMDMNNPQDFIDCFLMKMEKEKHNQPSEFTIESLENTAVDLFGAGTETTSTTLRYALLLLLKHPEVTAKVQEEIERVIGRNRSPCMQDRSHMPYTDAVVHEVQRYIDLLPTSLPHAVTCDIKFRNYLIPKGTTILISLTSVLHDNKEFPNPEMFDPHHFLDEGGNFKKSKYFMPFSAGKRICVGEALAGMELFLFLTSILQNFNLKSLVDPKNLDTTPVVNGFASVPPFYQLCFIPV
# Description: as §2
# CYP2B6 = target: T2, CYP2B6 (Homo sapiens, UniProt P20813); assay: CYP inhibition assay, CYP2B6; type: in vitro ADME
# T2 sequence (P20813 1-491): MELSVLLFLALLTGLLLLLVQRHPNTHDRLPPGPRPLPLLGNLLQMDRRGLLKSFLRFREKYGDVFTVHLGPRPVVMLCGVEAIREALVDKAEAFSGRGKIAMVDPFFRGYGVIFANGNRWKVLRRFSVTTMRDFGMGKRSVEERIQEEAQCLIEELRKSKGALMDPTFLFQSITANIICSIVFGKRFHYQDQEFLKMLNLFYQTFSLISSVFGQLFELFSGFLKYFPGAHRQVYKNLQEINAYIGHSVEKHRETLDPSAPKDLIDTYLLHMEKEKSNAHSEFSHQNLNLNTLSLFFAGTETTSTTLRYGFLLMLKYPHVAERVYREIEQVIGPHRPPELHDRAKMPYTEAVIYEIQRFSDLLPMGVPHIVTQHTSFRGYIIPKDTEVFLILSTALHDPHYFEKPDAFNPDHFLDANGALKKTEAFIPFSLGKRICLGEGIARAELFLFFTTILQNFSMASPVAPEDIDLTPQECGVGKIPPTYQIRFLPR
# Description: as §2
# UGT1A1 = target: T3, UGT1A1 (Homo sapiens, UniProt P22309); assay: UGT inhibition assay, UGT1A1; type: in vitro ADME
# T3 sequence (P22309 26-533): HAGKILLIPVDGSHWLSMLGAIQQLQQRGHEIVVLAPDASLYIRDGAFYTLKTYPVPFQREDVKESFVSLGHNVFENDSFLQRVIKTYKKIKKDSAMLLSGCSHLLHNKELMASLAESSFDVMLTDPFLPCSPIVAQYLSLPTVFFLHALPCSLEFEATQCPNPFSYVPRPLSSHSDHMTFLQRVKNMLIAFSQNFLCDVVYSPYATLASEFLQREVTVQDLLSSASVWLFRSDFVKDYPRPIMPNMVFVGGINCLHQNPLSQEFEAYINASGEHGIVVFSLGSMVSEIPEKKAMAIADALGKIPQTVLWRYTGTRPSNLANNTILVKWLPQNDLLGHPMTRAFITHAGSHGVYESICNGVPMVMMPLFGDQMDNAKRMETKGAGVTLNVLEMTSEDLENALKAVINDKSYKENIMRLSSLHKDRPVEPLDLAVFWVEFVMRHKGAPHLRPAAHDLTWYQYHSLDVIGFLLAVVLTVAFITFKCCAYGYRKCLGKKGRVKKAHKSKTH
# Description: 2R,6R-hydroxynorketamine was therefore investigated for its potential to inhibit this isozyme, along with that of the major UGT isozyme, UGT1A1, using a UGT inhibition assay.
# UGT2B7 = UGT2B7 (Homo sapiens, UniProt P16662); assay: UGT inhibition assay, UGT2B7; type: in vitro ADME
# UGT2B7, sequence (P16662 24-529): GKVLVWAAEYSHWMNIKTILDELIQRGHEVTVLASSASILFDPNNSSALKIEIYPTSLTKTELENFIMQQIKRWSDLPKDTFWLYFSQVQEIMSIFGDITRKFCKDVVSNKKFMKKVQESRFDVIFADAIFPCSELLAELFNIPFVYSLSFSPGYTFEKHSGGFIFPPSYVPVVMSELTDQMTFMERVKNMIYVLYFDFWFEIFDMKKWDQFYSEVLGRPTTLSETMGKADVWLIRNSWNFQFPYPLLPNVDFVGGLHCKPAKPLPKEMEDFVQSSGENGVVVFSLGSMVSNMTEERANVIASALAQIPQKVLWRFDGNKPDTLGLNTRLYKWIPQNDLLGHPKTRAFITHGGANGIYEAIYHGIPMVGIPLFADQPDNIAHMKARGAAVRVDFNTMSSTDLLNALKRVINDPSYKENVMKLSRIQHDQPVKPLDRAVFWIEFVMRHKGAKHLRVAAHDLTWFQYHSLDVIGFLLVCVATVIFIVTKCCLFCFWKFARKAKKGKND
# [1] = turbidimetric aqueous solubility; type: physicochemical
# in vitro = settings: human
smiles,measurement,setting,value
"N[C@@]1(c2ccccc2Cl)CCC[C@@H](O)C1=O [2R,6R-hydroxynorketamine]",% Inhibition of Control Specific Binding,5-HT1A,5%
same,% of Control Specific Binding,5-HT1A,97.9%
same,binding to 5HT1A receptor subtype,5-HT1A,does not bind
same,% Inhibition of Control Specific Binding,5-HT2A,0%
same,% of Control Specific Binding,5-HT2A,103.8%
same,binding to 5HT2A receptor subtype,5-HT2A,does not bind
same,% Inhibition of Control Specific Binding,dopamine transporter,11%
same,% of Control Specific Binding,dopamine transporter,87.2%
same,activity at dopamine transporters,dopamine transporter,nor activity at dopamine transporters
same,% Inhibition of Control Specific Binding,MAO-A,−5%
same,% of Control Specific Binding,MAO-A,97.7%
same,% Inhibition of Control Specific Binding,MAO-B,−1%
same,% of Control Specific Binding,MAO-B,100.4%
same,inhibition at 0.4 µM,CYP2D6; 0.4 μM,3.16%
same,inhibition at 1 µM,CYP2D6; 1 μM,6.65%
same,inhibition at 4 µM,CYP2D6; 4 μM,11.5%
same,inhibition at 10 µM,CYP2D6; 10 μM,9.41%
same,inhibition at 40 µM,CYP2D6; 40 μM,11.2%
same,inhibition at 100 µM,CYP2D6; 100 μM,5.73%
same,inhibition of CYP2C9,CYP2C9,did not inhibit
same,inhibition at 0.4 µM,"CYP2C9; human, 0.4 μM",4.59%
same,inhibition at 1 µM,"CYP2C9; human, 1 μM",5.92%
same,inhibition at 4 µM,"CYP2C9; human, 4 μM",5.8%
same,inhibition at 10 µM,"CYP2C9; human, 10 μM",11.9%
same,inhibition at 40 µM,"CYP2C9; human, 40 μM",-0.113%
same,inhibition at 100 µM,"CYP2C9; human, 100 μM",-1.33%
same,inhibition of CYP2B6,CYP2B6,did not inhibit
same,inhibition at 0.4 µM,"CYP2B6; human, 0.4 μM",6.03%
same,inhibition at 1 µM,"CYP2B6; human, 1 μM",10.1%
same,inhibition at 4 µM,"CYP2B6; human, 4 μM",10.6%
same,inhibition at 10 µM,"CYP2B6; human, 10 μM",14.4%
same,inhibition at 40 µM,"CYP2B6; human, 40 μM",14.8%
same,inhibition at 100 µM,"CYP2B6; human, 100 μM",16.7%
same,inhibition of UGT1A1,UGT1A1,does not inhibit
same,inhibition of UGT2B7,UGT2B7,does not inhibit
same,estimated precipitation range lower bound,[1],100 µM
same,estimated precipitation range upper bound,[1],> 100 µM
same,solubility,[1],high solubility
same,recovery,"in vitro; Caco-2, Direction = A2B Mean % Recovery, Caco-2, A2B",98.9%
same,Papp A→B,"in vitro; Caco-2, Direction = A2B Mean Papp, Caco-2, A2B, mean, n 2",45.7 ×10⁻⁶ cm/s
same,Papp A→B,"in vitro; Caco-2, Direction = A2B Papp Replicate 1, Caco-2, A2B, replicate 1",49.1 ×10⁻⁶ cm/s
same,Papp A→B,"in vitro; Caco-2, Direction = A2B Papp Replicate 2, Caco-2, A2B, replicate 2",42.3 ×10⁻⁶ cm/s
same,recovery,"in vitro; Caco-2, Direction = B2A Mean % Recovery, Caco-2, B2A",103%
same,Papp B→A,"in vitro; Caco-2, Direction = B2A Mean Papp, Caco-2, B2A, mean, n 2",50.7 ×10⁻⁶ cm/s
same,Papp B→A,"in vitro; Caco-2, Direction = B2A Papp Replicate 1, Caco-2, B2A, replicate 1",52.8 ×10⁻⁶ cm/s
same,Papp B→A,"in vitro; Caco-2, Direction = B2A Papp Replicate 2, Caco-2, B2A, replicate 2",48.5 ×10⁻⁶ cm/s
same,efflux ratio,"in vitro; Caco-2, Efflux Ratio (Mean Papp B2A/Mean Papp A2B), Caco-2, without inhibitor",< 2
